The results in this text go back to patent publication US10213433B2 (AbbVie Inc., priority 2010, dated 2019).

Some results are limits rather than exact numbers.

Chain of Bcl-2 protein (P10415 whole entry): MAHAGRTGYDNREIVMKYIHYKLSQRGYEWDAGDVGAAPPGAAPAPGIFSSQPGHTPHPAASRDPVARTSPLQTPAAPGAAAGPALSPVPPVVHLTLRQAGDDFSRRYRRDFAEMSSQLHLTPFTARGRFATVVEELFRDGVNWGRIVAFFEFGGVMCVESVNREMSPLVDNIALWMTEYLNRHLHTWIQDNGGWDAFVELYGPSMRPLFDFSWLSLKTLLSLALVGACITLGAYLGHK

This experiment has as its target Bcl-2 protein (Homo sapiens (Human), UniProt P10415). Description: Bcl-2 binding TR-FRET (Time-Resolved Fluorescence-Resonance-Energy-Transfer) assay. To be noted: inhibition constant for binding to Bcl-2 protein. From the text:
The smaller the Ki value, the greater is the binding affinity.
Consider `O=C(NS(=O)(=O)c1ccc(NCCCN2CCOCC2)c([N+](=O)[O-])c1)c1ccc(N2CCN(Cc3ccccc3-c3ccc(Cl)cc3)CC2)cc1Oc1cnc2[nH]ccc2c1` [Compound 2, 4-{4-[(4′-chloro-1,1′-biphenyl-2-yl)methyl]piperazin-1-yl}-N-({4-[(3-morpholin-4-ylpropyl)amino]-3-nitrophenyl}sulfonyl)-2-(1H-pyrrolo[2,3-b]pyridin-5-yloxy)benzamide], for which the Ki is less than 0.01 nM.
`CN1CCC(Nc2ccc(S(=O)(=O)NC(=O)c3ccc(N4CCN(CC5=C(c6ccc(Cl)cc6)CC(C)(C)CC5)CC4)cc3Oc3cnc4[nH]ccc4c3)cc2[N+](=O)[O-])CC1` [Compound 4, 4-(4-{[2-(4-chlorophenyl)-4,4-dimethylcyclohex-1-en-1-yl]methyl}piperazin-1-yl)-N-({4-[(1-methylpiperidin-4-yl)amino]-3-nitrophenyl}sulfonyl)-2-(1H-pyrrolo[2,3-b]pyridin-5-yloxy)benzamide] showed a Ki of less than 0.01 nM.
Regarding `COCCNc1ccc(S(=O)(=O)NC(=O)c2ccc(N3CCN(CC4=C(c5ccc(Cl)cc5)CC(C)(C)CC4)CC3)cc2Oc2cnc3[nH]ccc3c2)cc1[N+](=O)[O-]` [Compound 10, 4-(4-{[2-(4-chlorophenyl)-4,4-dimethylcyclohex-1-en-1-yl]methyl}piperazin-1-yl)-N-({4-[(2-methoxyethyl)amino]-3-nitrophenyl}sulfonyl)-2-(1H-pyrrolo[2,3-b]pyridin-5-yloxy)benzamide], the Ki was less than 0.01 nM.
Take `CC1(C)CCC(CN2CCN(c3ccc(C(=O)NS(=O)(=O)c4ccc(NC[C@H]5CCCOC5)c([N+](=O)[O-])c4)c(Oc4cnc5[nH]ccc5c4)c3)CC2)=C(c2ccc(Cl)cc2)C1` [Compound 13, 4-(4-{[2-(4-chlorophenyl)-4,4-dimethylcyclohex-1-en-1-yl]methyl}piperazin-1-yl)-N-[(3-nitro-4-{[(3R)-tetrahydro-2H-pyran-3-ylmethyl]amino}phenyl)sulfonyl]-2-(1H-pyrrolo[2,3-b]pyridin-5-yloxy)benzamide]: the Ki is less than 0.01 nM.
`CC1(C)CC(c2ccc(Cl)cc2)=C(CN2CCN(c3ccc(C(=O)NS(=O)(=O)c4ccc(NCC5CCOCC5)c([N+](=O)[O-])c4)c(Oc4cnc5[nH]ccc5c4)c3)CC2)CO1` [Compound 15, 4-(4-{[4-(4-chlorophenyl)-6,6-dimethyl-5,6-dihydro-2H-pyran-3-yl]methyl}piperazin-1-yl)-N-({3-nitro-4-[(tetrahydro-2H-pyran-4-ylmethyl)amino]phenyl}sulfonyl)-2-(1H-pyrrolo[2,3-b]pyridin-5-yloxy)benzamide] showed an inhibitory constant (Ki) of less than 0.01 nM.
In turn, `CC1(C)CCC(CN2CCN(c3ccc(C(=O)NS(=O)(=O)c4ccc(NCC5COCCO5)c([N+](=O)[O-])c4)c(Oc4cnc5[nH]ccc5c4)c3)CC2)=C(c2ccc(Cl)cc2)C1` (stereo not shown) [Compound 25, 4-(4-{[2-(4-chlorophenyl)-4,4-dimethylcyclohex-1-en-1-yl]methyl}piperazin-1-yl)-N-({4-[(1,4-dioxan-2-ylmethyl)amino]-3-nitrophenyl}sulfonyl)-2-(1H-pyrrolo[2,3-b]pyridin-5-yloxy)benzamide] came in with a Ki of less than 0.01 nM.
Next, `CC1(C)CCC(CN2CCN(c3ccc(C(=O)NS(=O)(=O)c4ccc(OC[C@@H]5COCCO5)c([N+](=O)[O-])c4)c(Oc4cnc5[nH]ccc5c4)c3)CC2)=C(c2ccc(Cl)cc2)C1` [Compound 28, 4-(4-{[2-(4-chlorophenyl)-4,4-dimethylcyclohex-1-en-1-yl]methyl}piperazin-1-yl)-N-({4-[(2S)-1,4-dioxan-2-ylmethoxy]-3-nitrophenyl}sulfonyl)-2-(1H-pyrrolo[2,3-b]pyridin-5-yloxy)benzamide]: less than 0.01 nM; `CC1(C)CCC(CN2CCN(c3ccc(C(=O)NS(=O)(=O)c4ccc(OC[C@H]5COCCO5)c([N+](=O)[O-])c4)c(Oc4cnc5[nH]ccc5c4)c3)CC2)=C(c2ccc(Cl)cc2)C1` [Compound 30, 4-(4-{[2-(4-chlorophenyl)-4,4-dimethylcyclohex-1-en-1-yl]methyl}piperazin-1-yl)-N-({4-[(2R)-1,4-dioxan-2-ylmethoxy]-3-nitrophenyl}sulfonyl)-2-(1H-pyrrolo[2,3-b]pyridin-5-yloxy)benzamide]: less than 0.01 nM.
Next, `CC1(C)CC(c2ccc(Cl)cc2)=C(CN2CCN(c3ccc(C(=O)NS(=O)(=O)c4ccc(NCC5COCCO5)c([N+](=O)[O-])c4)c(Oc4cnc5[nH]ccc5c4)c3)CC2)CO1` (stereo not shown) [Compound 31, 4-(4-{[4-(4-chlorophenyl)-6,6-dimethyl-5,6-dihydro-2H-pyran-3-yl]methyl}piperazin-1-yl)-N-({4-[(1,4-dioxan-2-ylmethyl)amino]-3-nitrophenyl}sulfonyl)-2-(1H-pyrrolo[2,3-b]pyridin-5-yloxy)benzamide]: less than 0.01 nM; `CC1(C)CC(c2ccc(Cl)cc2)=C(CN2CCN(c3ccc(C(=O)NS(=O)(=O)c4ccc(OCC5COCCO5)c([N+](=O)[O-])c4)c(Oc4cnc5[nH]ccc5c4)c3)CC2)CO1` (stereo not shown) [Compound 32, 4-(4-{[4-(4-chlorophenyl)-6,6-dimethyl-5,6-dihydro-2H-pyran-3-yl]methyl}piperazin-1-yl)-N-{[4-(1,4-dioxan-2-ylmethoxy)-3-nitrophenyl]sulfonyl}-2-(1H-pyrrolo[2,3-b]pyridin-5-yloxy)benzamide]: less than 0.01 nM; `CC1(C)CC(c2ccc(Cl)cc2)=C(CN2CCN(c3ccc(C(=O)NS(=O)(=O)c4cnc(OCC5CCOCC5)c(C#N)c4)c(Oc4cnc5[nH]ccc5c4)c3)CC2)CO1` [Compound 35, 4-(4-{[4-(4-chlorophenyl)-6,6-dimethyl-5,6-dihydro-2H-pyran-3-yl]methyl}piperazin-1-yl)-N-{[5-cyano-6-(tetrahydro-2H-pyran-4-ylmethoxy)pyridin-3-yl]sulfonyl}-2-(1H-pyrrolo[2,3-b]pyridin-5-yloxy)benzamide]: less than 0.01 nM.
On to `CC1(C)CCC(CN2CCN(c3ccc(C(=O)NS(=O)(=O)c4cnc(OCC5CCOCC5)c(Cl)c4)c(Oc4cnc5[nH]ccc5c4)c3)CC2)=C(c2ccc(Cl)cc2)C1` [Compound 40, 4-(4-{[2-(4-chlorophenyl)-4,4-dimethylcyclohex-1-en-1-yl]methyl}piperazin-1-yl)-N-{[5-chloro-6-(tetrahydro-2H-pyran-4-ylmethoxy)pyridin-3-yl]sulfonyl}-2-(1H-pyrrolo[2,3-b]pyridin-5-yloxy)benzamide], for which the Ki was less than 0.01 nM.
Next, `CC1(C)CC(c2ccc(Cl)cc2)=C(CN2CCN(c3ccc(C(=O)NS(=O)(=O)c4cnc(OCC5CCOCC5)c(Cl)c4)c(Oc4cnc5[nH]ccc5c4)c3)CC2)CO1` [Compound 41, 4-(4-{[4-(4-chlorophenyl)-6,6-dimethyl-5,6-dihydro-2H-pyran-3-yl]methyl}piperazin-1-yl)-N-{[5-chloro-6-(tetrahydro-2H-pyran-4-ylmethoxy)pyridin-3-yl]sulfonyl}-2-(1H-pyrrolo[2,3-b]pyridin-5-yloxy)benzamide]: less than 0.01 nM; `CN1CCC(Nc2ccc(S(=O)(=O)NC(=O)c3ccc(N4CCN(CC5=C(c6ccc(Cl)cc6)CC(C)(C)OC5)CC4)cc3Oc3cnc4[nH]ccc4c3)cc2S(=O)(=O)C(F)(F)F)CC1` [Compound 45, 4-(4-{[4-(4-chlorophenyl)-6,6-dimethyl-5,6-dihydro-2H-pyran-3-yl]methyl}piperazin-1-yl)-N-({4-[(1-methylpiperidin-4-yl)amino]-3-[(trifluoromethyl)sulfonyl]phenyl}sulfonyl)-2-(1H-pyrrolo[2,3-b]pyridin-5-yloxy)benzamide]: less than 0.01 nM.
Turning to `CN1CCC(COc2ncc(S(=O)(=O)NC(=O)c3ccc(N4CCN(CC5=C(c6ccc(Cl)cc6)CC(C)(C)CC5)CC4)cc3Oc3cnc4[nH]ccc4c3)cc2Br)CC1` [Compound 47, N-({5-bromo-6-[(1-methylpiperidin-4-yl)methoxy]pyridin-3-yl}sulfonyl)-4-(4-{[2-(4-chlorophenyl)-4,4-dimethylcyclohex-1-en-1-yl]methyl}piperazin-1-yl)-2-(1H-pyrrolo[2,3-b]pyridin-5-yloxy)benzamide], the Ki is less than 0.01 nM.
Next, `CN1CCC(COc2ccc(S(=O)(=O)NC(=O)c3ccc(N4CCN(CC5=C(c6ccc(Cl)cc6)CC(C)(C)CC5)CC4)cc3Oc3cnc4[nH]ccc4c3)cc2[N+](=O)[O-])CC1` [Compound 48, 4-(4-{[2-(4-chlorophenyl)-4,4-dimethylcyclohex-1-en-1-yl]methyl}piperazin-1-yl)-N-({4-[(1-methylpiperidin-4-yl)methoxy]-3-nitrophenyl}sulfonyl)-2-(1H-pyrrolo[2,3-b]pyridin-5-yloxy)benzamide]: less than 0.01 nM; `CC1(C)CCC(CN2CCN(c3ccc(C(=O)NS(=O)(=O)c4ccc(OCC5CCOC(C)(C)C5)c([N+](=O)[O-])c4)c(Oc4cnc5[nH]ccc5c4)c3)CC2)=C(c2ccc(Cl)cc2)C1` (stereo not shown) [Compound 51, 4-(4-{[2-(4-chlorophenyl)-4,4-dimethylcyclohex-1-en-1-yl]methyl}piperazin-1-yl)-N-({4-[(2,2-dimethyltetrahydro-2H-pyran-4-yl)methoxy]-3-nitrophenyl}sulfonyl)-2-(1H-pyrrolo[2,3-b]pyridin-5-yloxy)benzamide]: less than 0.01 nM.
Next, `CC(=O)N1CCC(Nc2ccc(S(=O)(=O)NC(=O)c3ccc(N4CCN(CC5=C(c6ccc(Cl)cc6)CC(C)(C)CC5)CC4)cc3Oc3cnc4[nH]ccc4c3)cc2[N+](=O)[O-])CC1` [Compound 53, N-({4-[(1-acetylpiperidin-4-yl)amino]-3-nitrophenyl}sulfonyl)-4-(4-{[2-(4-chlorophenyl)-4,4-dimethylcyclohex-1-en-1-yl]methyl}piperazin-1-yl)-2-(1H-pyrrolo[2,3-b]pyridin-5-yloxy)benzamide]: less than 0.01 nM; `CC1(C)CCC(CN2CCN(c3ccc(C(=O)NS(=O)(=O)c4ccc(NCCCN5CCOCC5)c([N+](=O)[O-])c4)c(Oc4cnc5[nH]ccc5c4)c3)CC2)=C(c2ccc(Cl)cc2)C1` [Compound 55, 4-(4-{[2-(4-chlorophenyl)-4,4-dimethylcyclohex-1-en-1-yl]methyl}piperazin-1-yl)-N-({4-[(3-morpholin-4-ylpropyl)amino]-3-nitrophenyl}sulfonyl)-2-(1H-pyrrolo[2,3-b]pyridin-5-yloxy)benzamide]: less than 0.01 nM.
